# Molecular target: T1, CXCR2 (Homo sapiens, UniProt P25025)
# T1 construct: expressed in transfected cells; host or cells: Ba/F3 (Baf3) cells; membranes, clone designation [Hi70]
# T1 sequence (P25025 1-360): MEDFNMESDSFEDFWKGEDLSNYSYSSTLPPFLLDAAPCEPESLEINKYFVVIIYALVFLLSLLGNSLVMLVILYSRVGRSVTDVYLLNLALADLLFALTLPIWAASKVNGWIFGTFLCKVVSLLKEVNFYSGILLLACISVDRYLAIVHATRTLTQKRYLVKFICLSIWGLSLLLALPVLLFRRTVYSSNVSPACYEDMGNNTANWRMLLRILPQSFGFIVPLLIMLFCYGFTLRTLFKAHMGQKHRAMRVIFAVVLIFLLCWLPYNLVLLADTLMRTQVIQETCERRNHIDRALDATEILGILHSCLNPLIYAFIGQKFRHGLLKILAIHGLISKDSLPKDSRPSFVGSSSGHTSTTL
# Test: [35S]GTPγS Binding Assay: inhibition of agonist (GROα) stimulated [35S]GTPγS exchange in membranes expressing CXCR2
# Type: biochemical
# Details: 1 h; 3 nM compound; Baf3/hCXCR2 membranes; percent inhibition at highest chemokine (hGROα) concentration 500 nM; control (no compound) = 0%, standard = 100%; read-out: % Inhibition GTPyS
# Method: [^35S]GTPγS Binding Assay:
# This assay measures the inhibition of agonist (GROα) stimulated guanosine 5′-[γ-^35S]triphospate ([^35S]GTPγS, triethylammonium salt) exchange in membranes expressing CXCR2.
# For each assay point, 2 μg of membrane (Baf3/hCXCR22 [Hi70]), 200 μg wheat germ agglutinin-coated SPA beads (WGA-SPA; Amersham, Arlington Heights, Ill.), 3 μM guanosine 5′-diphosphate (GDP) ±3 nM compound are pre-incubated for 3 hrs at room temperature (mixing by inversion) in SPA binding buffer (50 mM TRIS-HCL, 1 mM CaCl2, 5 mM MgCl2, 50 mM NaCl, 0.002% NaN3, 0.1% BSA, 10 μg/ml saponin, pH=7.6).
# The bead, membrane, compound mixture is transferred to a 96-well Isoplate (Wallac, Gaithersburg, Md.) and pre-incubated for 60 min with concentrations of chemokine (hGROα) ranging from 500 nM to 1 nM with a no chemokine sample serving as a control. The GTPγS exchange reaction was initiated by the addition of 0.1 nM [^35S]GTPγS and the incubation for 60 min at room temperature. Assay is terminated by the addition of 10 μl “Stop Solution” (0.5M Na-EDTA; 10 μM GDP).
# Membrane-bound [^35S]GTPγS was measured using a 1450 Microbeta Trilux counter (Wallac, Gaithersburg, Md.). Data is calculated as percent inhibition at the highest chemokine concentration (500 nM). The control (No compound addition), which is set to 0%, versus the % inhibition of the standard, which is set at 100%. The standard used is: [drawing 19]
row,inhibition at 0.003 µM,Structure (SMILES)
1,132%,"CC[C@@H](Nc1c(Nc2cccc(C(=O)N3CCCC3)c2O)c(=O)c1=O)c1cc(C(C)C)c(C)o1 [Compound 2, 1-[2-HYDROXY-3-[[2-[[1(R)-[5-METHYL- 4-(1-METHYLETHYL)-2-FURANLY]- PROPYL]AMINO]-3,4-DIOXO-1- CYCLOBUTEN-1-YL]AMINO]-BENZOYL]PYRROLIDINE]"
2,109%,"CC[C@@H](Nc1c(Nc2cccc(C(=O)N(C)C)c2O)c(=O)c1=O)c1cc(C2CCCC2)c(C)o1 [Compound 11, 3-[[2-[[1(R)-(4-CYCLOPENTYL-5- METHYL-2-FURANYL)PROPYL]AMINO]- 3,4-DIOXO-1-CYCLOBUTEN-1-YL]- AMINO]-2-HYDROXY-N,N-DIMETHYL- BENZAMIDE]"
3,115%,"CC[C@@H](Nc1c(Nc2cccc(C(=O)N3CCC3)c2O)c(=O)c1=O)c1cc(C2CC2)c(C)o1 [Compound 6, 1-[3-[[2-[[1(R)-(4-CYCLOPROPYL-5- METHYL-2-FURANYL)PROPYL]AMINO]- 3,4-DIOXO-1-CYCLOBUTEN-1- YL]AMINO]-2-HYDROXYBENZOYL]- AZETIDINE]"
4,105%,"CC[C@@H](Nc1c(Nc2cccc(C(=O)N(C)C)c2O)c(=O)c1=O)c1cc(C(C)C)c(C2CC2)o1 [Compound 13, 3-[[2-[[1(R)-[5-CYCLOPROPYL-4-(1- METHYLETHYL)-2-FURANYL]PROPYL]- AMINO]-3,4-DIOXO-1-CYCLOBUTEN-1- YL]AMINO]-2-HYDROXY-N,N- DIMETHYLBENZAMIDE]"
5,137%,"CC[C@@H](Nc1c(Nc2cccc(C(=O)N3CCOCC3)c2O)c(=O)c1=O)c1cc(C(C)C)c(C)o1 [Compound 1, 4-[2-HYDROXY-3-[[2-[[1(R)-[5-METHYL- 4-(1-METHYLETHYL)-2-FURANYL]- PROPYL]AMINO]-3,4-DIOXO-1- CYCLOBUTEN-1-YL]AMINO]BENZOYL]- MORPHOLINE]"
6,100%,"CC[C@@H](Nc1c(Nc2cccc(C(=O)N3CCC3)c2O)c(=O)c1=O)c1cc(C(C)C)c(C)o1 [Compound 17, 1-[2-HYDROXY-3-[[2-[[1(R)-[5-METHYL- 4-(1-METHYLETHYL)-2-FURANYL]- PROPYL]AMINO]-3,4-DIOXO-1- CYCLOBUTEN-1-YL]AMINO]- BENZOYL]AZETIDINE]"
7,122%,"CC[C@@H](Nc1c(Nc2cccc(C(=O)N(C)C)c2O)c(=O)c1=O)c1cc(Br)c(C)o1 [Compound 3, 3-[[2-[[1(R)-(4-BROMO-5-METHYL-2- FURANYL)PROPYL]AMINO]-3,4-DIOXO- 1-CYCLOBUTEN-1-YL]AMINO]-2- HYDROXY-N,N-DIMETHYLBENZAMIDE]"
8,109%,"CC[C@@H](Nc1c(Nc2cccc(C(=O)N(C)C)c2O)c(=O)c1=O)c1cc(C(C)C)c(Br)o1 [Compound 10, 3-[[2-[[1(R)-[5-BROMO-4-(1-METHYL- ETHYL)-2-FURANYL]PROPYL]AMINO]- 3,4,-DIOXO-1-CYCLOBUTEN-1-YL]- AMINO]-2-HYDROXY-N,N-DIMETHYL- BENZAMIDE]"
9,114%,"CC[C@@H](Nc1c(Nc2cccc(C(=O)N3CCOCC3)c2O)c(=O)c1=O)c1cc(Br)c(C)o1 [Compound 7, 4-[3-[[2-[[1(R)-(4-BROMO-5-METHYL-2- FURANYL)PROPYL]AMINO]-3,4-DIOXO- 1-CYCLOBUTEN-1-YL]AMINO]-2- HYDROXYBENZOYL]MORPHOLINE]"
10,110%,"CC[C@@H](Nc1c(Nc2cccc(C(=O)N3CCCC3)c2O)c(=O)c1=O)c1cc(Br)c(C)o1 [Compound 9, 1-[3-[[2-[[1(R)-(4-BROMO-5-METHYL-2- FURANYL)PROPYL]AMINO]-3,4-DIOXO- 1-CYCLOBUTEN-1-YL]AMINO]-2- HYDROXYBENZOYL]PYRROLIDINE]"
11,103%,"CCc1oc([C@@H](CC)Nc2c(Nc3cccc(C(=O)N4CCC4)c3O)c(=O)c2=O)cc1Br [Compound 15, 1-[3-[[2-[[1(R)-(4-BROMO-5-ETHYL-2- FURANYL)PROPYL]AMINO]-3,4-DIOXO- 1-CYCLOBUTEN-1-YL]AMINO]-2- HYDROXYBENZOYL]AZETIDINE]"
12,107%,"CC[C@@H](Nc1c(Nc2cccc(C(=O)N(C)C)c2O)c(=O)c1=O)c1cc(C2CC2)c(C)o1 [Compound 12, 3-[[2-[[1(R)-(4-CYCLOPROPYL-5- METHYL-2-FURANYL)PROPYL]AMINO]- 3,4-DIOXO-1-CYCLOBUTEN-1-YL]- AMINO]-2-HYDROXY-N,N-DIMETHYL- BENZAMIDE]"
13,101%,"CC[C@@H](Nc1c(Nc2cccc(C(=O)N3CC[C@@H](O)C3)c2O)c(=O)c1=O)c1cc(Br)c(C)o1 [Compound 16, 1-[3-[[2-[[1(R)-(4-BROMO-5-METHYL-2- FURANYL)PROPYL]AMINO]-3,4-DIOXO- 1-CYCLOBUTEN-1-YL]AMINO]-2- HYDROXYBENZOYL]-3(R)- PYRROLIDINOL]"
14,112%,"CC[C@@H](Nc1c(Nc2cccc(C(=O)N(C)C)c2O)c(=O)c1=O)c1cc(C(C)C)c(C)o1 [Compound 8, 2-HYDROXY-N,N-DIMETHYL-3-[[2- [[1(R)-[5-METHYL-4-(1-METHYLETHYL)- 2-FURANYL]PROPYL]AMINO]-3,4- DIOXO-1-CYCLOBUTEN-1-YL]AMINO]- BENZAMIDE]"
15,99%,"CCc1oc([C@@H](CC)Nc2c(Nc3cccc(C(=O)N(C)C)c3O)c(=O)c2=O)cc1Br [Compound 18, 3-[[2-[[1(R)-(4-BROMO-5-ETHYL-2- FURANYL)PROPYL]AMINO]-3,4-DIOXO- 1-CYCLOBUTEN-1-YL]AMINO]-2- HYDROXY-N,N-DIMETHYLBENZAMIDE]"
16,103%,"CC[C@@H](Nc1c(Nc2cccc(C(=O)N3CCOCC3)c2O)c(=O)c1=O)c1cc(C2CC2)c(C)o1 [Compound 14, 4-[3-[[2-[[1(R)-(4-CYCLOPROPYL-5- METHYL-2-FURANYL)PROPYL]AMINO]- 3,4-DIOXO-1-CYCLOBUTEN-1-YL]- AMINO]-2-HYDROXYBENZOYL]- MORPHOLINE]"
17,119%,"CC[C@@H](Nc1c(Nc2cccc(C(=O)N3CC[C@H](O)C3)c2O)c(=O)c1=O)c1cc(Br)c(C)o1 [Compound 5, 1-[3-[[2-[[1(R)-(4-BROMO-5-METHYL-2- FURANYL)PROPYL]AMINO]-3,4-DIOXO- 1-CYCLOBUTEN-1-YL]AMINO]-2- HYDROXYBENZOYL]-3(S)- PYRROLIDINOL]"

row,Structure (SMILES),inhibition at 0.003 µM
1,"CC[C@@H](Nc1c(Nc2cccc(C(=O)N(C)C)c2O)c(=O)c1=O)c1cc(Cl)c(C)o1 [Compound 4, 3-[[2-[[1(R)-(4-CHLORO-5-METHYL-2- FURANYL)PROPYL]AMINO]-3,4-DIOXO- 1-CYCLOBUTEN-1-YL]AMINO]-2- HYDROXY-N,N-DIMETHYLBENZAMIDE]",120%
